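Grown in 96-well plates, cells were treated for 48 hours with each compound at five concentrations. Insufficient inhibition: endpoint recorded as highest concentration tested. Here, GI50 denotes the concentration required for 50% inhibition of growth. The concentration for full growth arrest is given as TGI.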
Columns and labels:
Assay in all cases: growth of human tumour cells (NCI), 48 h
[1] = tested on: 786-0 renal
[2] = tested on: A498 renal
[3] = tested on: A549 NSCLC
[4] = tested on: ACHN renal
[5] = tested on: BT-549 breast
[6] = tested on: CAKI-1 renal
[7] = tested on: CCRF-CEM leukemia
[8] = tested on: COLO 205 colon
[9] = tested on: DU-145 prostate
[10] = tested on: EKVX NSCLC
[11] = tested on: HCC-2998 colon
[12] = tested on: HCT-116 colon
[13] = tested on: HCT-15 colon
[14] = tested on: HL-60(TB) leukemia
[15] = tested on: HOP-62 NSCLC
[16] = tested on: HOP-92 NSCLC
[17] = tested on: HS 578T breast
[18] = tested on: HT29 colon
[19] = tested on: IGROV1 ovarian
[20] = tested on: K-562 leukemia
[21] = tested on: KM12 colon
[22] = tested on: LOX IMVI melanoma
[23] = tested on: M14 melanoma
[24] = tested on: MALME-3M melanoma
[25] = tested on: MCF7 breast
[26] = tested on: MDA-MB-231 breast
[27] = tested on: MDA-MB-435
[28] = tested on: MDA-MB-468 breast
[29] = tested on: MOLT-4 leukemia
[30] = tested on: NCI-H226 lung
[31] = tested on: NCI-H23 lung
[32] = tested on: NCI-H460 lung
[33] = tested on: NCI-H522 lung
[34] = tested on: OVCAR-3 ovarian
[35] = tested on: OVCAR-4 ovarian
[36] = tested on: OVCAR-5 ovarian
[37] = tested on: OVCAR-8 ovarian
[38] = tested on: PC-3 prostate
[39] = tested on: RPMI-8226 leukemia
[40] = tested on: RXF 393 renal
[41] = tested on: SF-268 CNS
[42] = tested on: SF-295 CNS
[43] = tested on: SF-539 CNS
[44] = tested on: SK-MEL-2 melanoma
[45] = tested on: SK-MEL-28 melanoma
[46] = tested on: SK-MEL-5 melanoma
[47] = tested on: SK-OV-3 ovarian
[48] = tested on: SN12C renal
[49] = tested on: SNB-19 CNS
[50] = tested on: SNB-75 CNS
[51] = tested on: SR leukemia
[52] = tested on: SW-620 colon
[53] = tested on: T-47D breast
[54] = tested on: TK-10 renal
[55] = tested on: U251 CNS
[56] = tested on: UACC-257 melanoma
[57] = tested on: UACC-62 melanoma
[58] = tested on: UO-31 renal

CN(C(=O)c1ccc(C(F)(F)F)cc1C(F)(F)F)c1sc2c(c1C#N)CCC(=O)C2
GI50 [1]: 15.7 µM
TGI [1]: 34.7 µM
GI50 [2]: 16.9 µM
TGI [2]: 30.9 µM
GI50 [3]: 18.1 µM
TGI [3]: 41.8 µM
GI50 [4]: 14.2 µM
TGI [4]: 29.6 µM
GI50 [5]: 2.82 µM
TGI [5]: 8.29 µM
GI50 [6]: 7.01 µM
TGI [6]: 21.1 µM
GI50 [7]: 2.73 µM
TGI [7]: 14.6 µM
GI50 [8]: 16 µM
TGI [8]: 30.5 µM
GI50 [9]: 17.3 µM
TGI [9]: 31.3 µM
GI50 [10]: 14.2 µM
TGI [10]: 30.8 µM
GI50 [11]: 15.1 µM
TGI [11]: 29.5 µM
GI50 [12]: 3.65 µM
TGI [12]: 14.4 µM
GI50 [13]: 3.09 µM
TGI [13]: 11.6 µM
GI50 [14]: 3.33 µM
TGI [14]: 25.6 µM
GI50 [15]: 16.1 µM
TGI [15]: 30.3 µM
GI50 [16]: 5.35 µM
TGI [16]: 19.3 µM
GI50 [17]: 3.92 µM
TGI [17]: 28.7 µM
GI50 [18]: 17.6 µM
TGI [18]: 34.4 µM
GI50 [19]: 11.3 µM
TGI [19]: 25.7 µM
GI50 [20]: 2.7 µM
TGI [20]: > 100 µM
GI50 [21]: 4.25 µM
TGI [21]: 17.5 µM
GI50 [22]: 4.09 µM
TGI [22]: 15.5 µM
GI50 [23]: 4.18 µM
TGI [23]: 19.2 µM
GI50 [24]: 18.1 µM
TGI [24]: 36.1 µM
GI50 [25]: 14.6 µM
TGI [25]: 31 µM
GI50 [26]: 13.1 µM
TGI [26]: 35 µM
GI50 [27]: 15.7 µM
TGI [27]: 30.5 µM
GI50 [28]: 2.35 µM
TGI [28]: 6.93 µM
GI50 [29]: 4.13 µM
TGI [29]: 27.8 µM
GI50 [30]: 16.7 µM
TGI [30]: 40.9 µM
GI50 [31]: 6.94 µM
TGI [31]: 22.8 µM
GI50 [32]: 17.2 µM
TGI [32]: 33.2 µM
GI50 [33]: 1.62 µM
TGI [33]: 3.38 µM
GI50 [34]: 2.4 µM
TGI [34]: 6.1 µM
GI50 [35]: 3 µM
TGI [35]: 10.3 µM
GI50 [36]: 21.3 µM
TGI [36]: 39.6 µM
GI50 [37]: 4.66 µM
TGI [37]: 19 µM
GI50 [38]: 2.69 µM
TGI [38]: 6.93 µM
GI50 [39]: 2.82 µM
TGI [39]: 13.3 µM
GI50 [40]: 2.74 µM
TGI [40]: 10.1 µM
GI50 [41]: 12.1 µM
TGI [41]: 32.8 µM
GI50 [42]: 12.3 µM
TGI [42]: 25.6 µM
GI50 [43]: 2.34 µM
TGI [43]: 5.04 µM
GI50 [44]: 14.3 µM
TGI [44]: 31 µM
GI50 [45]: 21.4 µM
TGI [45]: 43.8 µM
GI50 [46]: 8.15 µM
TGI [46]: 21.1 µM
GI50 [47]: 15.3 µM
TGI [47]: 28.9 µM
GI50 [48]: 10.5 µM
TGI [48]: 29.6 µM
GI50 [49]: 12.4 µM
TGI [49]: 26.8 µM
GI50 [50]: 5.25 µM
TGI [50]: 20.7 µM
GI50 [51]: 2.64 µM
TGI [51]: 11 µM
GI50 [52]: 3.22 µM
TGI [52]: 12.3 µM
GI50 [53]: 4.43 µM
TGI [53]: 30.4 µM
GI50 [54]: 14.6 µM
TGI [54]: 28 µM
GI50 [55]: 1.98 µM
TGI [55]: 4.68 µM
GI50 [56]: 16.3 µM
TGI [56]: 32.8 µM
GI50 [57]: 4.48 µM
TGI [57]: 17 µM
GI50 [58]: 3.15 µM
TGI [58]: 13.7 µM

Source: PubChem BioAssay (NCI)
